Data: publication PMC8839658, “Design and Activity of Novel Oxadiazole Based Compounds That Target Poly(ADP-ribose) Polymerase” (Molecules, 2022)

Target: T1, recombinant human PARP enzyme (PARP1) (Homo sapiens, UniProt P09874)
T1 construct: purchased R&D Systems Ltd., Abingdon, UK 4677-096-K
Assay: PARP activity, PARP/Apoptosis Universal Colorimetric Assay Kit
Assay type: biochemical
Details: n = 3
Procedure: PARP activity was measured using the PARP/Apoptosis Universal Colorimetric Assay Kit (4677-096-K, R&D Systems Ltd., Abingdon, UK). The enzyme inhibition assay uses the histone proteins immobilized 96-well plate, which measures the incorporation of ADP-ribose (biotin-tagged), followed by detection using streptavidin-conjugated horse-radish peroxidase, and finally the color development after the addition of substrate. Oxadiazoles were incubated with the recombinant human PARP enzyme prior to detection.

T1 sequence (P09874 whole entry): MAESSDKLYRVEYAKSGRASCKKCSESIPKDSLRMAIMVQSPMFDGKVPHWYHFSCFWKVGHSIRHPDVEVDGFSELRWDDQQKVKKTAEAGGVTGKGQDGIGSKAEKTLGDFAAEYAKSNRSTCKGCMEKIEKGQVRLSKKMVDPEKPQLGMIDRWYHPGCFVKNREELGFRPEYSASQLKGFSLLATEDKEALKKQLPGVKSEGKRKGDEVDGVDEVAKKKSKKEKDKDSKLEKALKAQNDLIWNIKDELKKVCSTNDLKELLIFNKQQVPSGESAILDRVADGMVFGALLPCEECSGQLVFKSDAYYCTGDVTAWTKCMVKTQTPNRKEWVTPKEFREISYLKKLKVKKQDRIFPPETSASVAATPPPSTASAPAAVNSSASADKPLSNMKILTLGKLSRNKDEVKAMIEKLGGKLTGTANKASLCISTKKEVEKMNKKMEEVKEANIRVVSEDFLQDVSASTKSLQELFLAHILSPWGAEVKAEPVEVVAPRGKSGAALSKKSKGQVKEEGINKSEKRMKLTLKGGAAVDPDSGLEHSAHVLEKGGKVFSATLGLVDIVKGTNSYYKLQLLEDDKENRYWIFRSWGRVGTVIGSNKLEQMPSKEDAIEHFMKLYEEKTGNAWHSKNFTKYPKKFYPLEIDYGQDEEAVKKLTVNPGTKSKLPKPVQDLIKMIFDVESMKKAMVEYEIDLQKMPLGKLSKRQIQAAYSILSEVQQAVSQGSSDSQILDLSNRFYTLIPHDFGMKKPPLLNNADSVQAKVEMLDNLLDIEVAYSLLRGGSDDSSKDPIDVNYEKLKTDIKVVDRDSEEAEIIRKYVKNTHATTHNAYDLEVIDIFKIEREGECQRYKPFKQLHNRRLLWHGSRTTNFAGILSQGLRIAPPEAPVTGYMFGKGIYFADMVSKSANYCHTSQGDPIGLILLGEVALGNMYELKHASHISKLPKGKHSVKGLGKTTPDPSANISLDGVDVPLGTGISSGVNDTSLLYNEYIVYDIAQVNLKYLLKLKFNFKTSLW

Q: Which results are given for `NC(=O)c1cccc(N)c1` [3-Aminobenzamide, reference compound]?
A: inhibition at 0.01 µM (0.01 µM): 0.5%; inhibition at 0.1 µM (0.1 µM): 6.17%; inhibition at 1 µM (1 µM): 23.3%; inhibition at 10 µM (10 µM): 56.6%; inhibition at 100 µM (100 µM): 85.7%
